In patent US8048825B2, “Haloalkylsulfonanilide derivatives or salt thereof, herbicide comprising the derivatives as active ingredient, and use of the herbicide” (Nihon Nohyaku Co., Ltd., priority 2006, dated 2011):

What was measured:
Type in all cases: in vivo
Lindernia procumbens [1] = experiment: Herbicidal efficacy on paddy field weeds of pre-emergence stage (Pre), Test Example 1; conditions: 1000 g/ha as active ingredient, examined after 21 days
Procedure, shortened: (§1)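 Pre-emergence paddy test: 1000 g/ha active ingredient, formulated and water-diluted, dropped onto 5 cm floodwater one day after sowing both weeds in clay loam. After 21 days in greenhouse, inhibition relative to untreated control rated on 0 (0%) to 5 (100%) scale.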

Scirpus juncoides [2] = experiment: as above; conditions: 1000 g/ha as active ingredient, examined after 21 days
Procedure, shortened: as §1

Lindernia procumbens [3] = experiment: Herbicidal effect on paddy field weeds of post-emergence stage (Post), Test Example 2; conditions: one-leaf stage, 1000 g/ha as active ingredient, examined after 21 days
Procedure, shortened: (§2)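 Post-emergence paddy test: formulated compound added to 5 cm standing water at 1000 g/ha a.i. when weeds reached one-leaf stage in clay loam pots in greenhouse. Growth inhibition rated 21 days later versus untreated control on a 0 (0%) to 5 (100%) scale.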

Echinochloa crus-galli = experiment: as above; conditions: one-leaf stage, 1000 g/ha as active ingredient, examined after 21 days
Procedure, shortened: as §2

Scirpus juncoides [4] = experiment: as above; conditions: one-leaf stage, 1000 g/ha as active ingredient, examined after 21 days
Procedure, shortened: as §2

SMILES | Lindernia procumbens pre (herbicidal effect) (Lindernia procumbens [1]) | Scirpus juncoides pre (herbicidal effect) (Scirpus juncoides [2]) | Lindernia procumbens post (herbicidal effect) (Lindernia procumbens [3]) | Echinochloa crus-galli post (herbicidal effect) (Echinochloa crus-galli) | Scirpus juncoides post (herbicidal effect) (Scirpus juncoides [4])
CCC1(C(F)(F)F)CCN(Cc2ccccc2N(C(=O)OCC(C)C)S(=O)(=O)C(F)(F)F)C(=O)O1 (centres unmarked) [Compound 1-96] | 5 (100% herbicidal effect, phytotoxicity) | 4 (90%-99% herbicidal effect, phytotoxicity) | 5 (100% herbicidal effect, phytotoxicity) | 4 (90%-99% herbicidal effect, phytotoxicity) | 4 (90%-99% herbicidal effect, phytotoxicity)
CCCCOC(=O)N(c1ccccc1CN1CCCOC1=O)S(=O)(=O)C(F)(F)F [Compound 1-5] | 4 (90%-99% herbicidal effect, phytotoxicity) | 4 (90%-99% herbicidal effect, phytotoxicity) | 4 (90%-99% herbicidal effect, phytotoxicity) | 4 (90%-99% herbicidal effect, phytotoxicity) | 4 (90%-99% herbicidal effect, phytotoxicity)
CCOC(=O)N(c1ccccc1CN1CCC(c2c(C)cccc2C)OC1=O)S(=O)(=O)C(F)(F)F (centres unmarked) [Compound 1-362] | 5 (100% herbicidal effect, phytotoxicity) | 4 (90%-99% herbicidal effect, phytotoxicity) | 5 (100% herbicidal effect, phytotoxicity) | 4 (90%-99% herbicidal effect, phytotoxicity) | 4 (90%-99% herbicidal effect, phytotoxicity)
CC1(C2CCC2)CCN(Cc2ccccc2NS(=O)(=O)C(F)(F)F)C(=O)O1 (centres unmarked) [Compound 1-382] | 5 (100% herbicidal effect, phytotoxicity) | 5 (100% herbicidal effect, phytotoxicity) | 5 (100% herbicidal effect, phytotoxicity) | 4 (90%-99% herbicidal effect, phytotoxicity) | 4 (90%-99% herbicidal effect, phytotoxicity)
CCOC(=O)N(c1ccccc1CN1CCC(C)(C(C)(C)C)OC1=O)S(=O)(=O)C(F)(F)F (centres unmarked) [Compound 1-329] | 5 (100% herbicidal effect, phytotoxicity) | 5 (100% herbicidal effect, phytotoxicity) | 5 (100% herbicidal effect, phytotoxicity) | 4 (90%-99% herbicidal effect, phytotoxicity) | 4 (90%-99% herbicidal effect, phytotoxicity)
CCOC(=O)N(c1ccccc1CN1CC(C)(C)COC1=O)S(=O)(=O)C(F)(F)F [Compound 1-25] | 4 (90%-99% herbicidal effect, phytotoxicity) | 4 (90%-99% herbicidal effect, phytotoxicity) | 4 (90%-99% herbicidal effect, phytotoxicity) | 4 (90%-99% herbicidal effect, phytotoxicity) | 4 (90%-99% herbicidal effect, phytotoxicity)
CC1(C)CN(Cc2ccccc2NS(=O)(=O)C(F)(F)F)C(=O)OC1c1ccccc1 (centres unmarked) [Compound 1-261] | 5 (100% herbicidal effect, phytotoxicity) | 5 (100% herbicidal effect, phytotoxicity) | 5 (100% herbicidal effect, phytotoxicity) | 4 (90%-99% herbicidal effect, phytotoxicity) | 4 (90%-99% herbicidal effect, phytotoxicity)
CC(C)(C)C(=O)OCN(c1ccccc1CN1CCC(C)(C2CC2)OC1=O)S(=O)(=O)C(F)(F)F (centres unmarked) [Compound 1-136] | 4 (90%-99% herbicidal effect, phytotoxicity) | 4 (90%-99% herbicidal effect, phytotoxicity) | 4 (90%-99% herbicidal effect, phytotoxicity) | 4 (90%-99% herbicidal effect, phytotoxicity) | 4 (90%-99% herbicidal effect, phytotoxicity)
CCOC(=O)N(c1ccccc1CN1CCC(c2ccccc2)(C2CC2)OC1=O)S(=O)(=O)C(F)(F)F (centres unmarked) [Compound 1-185] | 4 (90%-99% herbicidal effect, phytotoxicity) | 4 (90%-99% herbicidal effect, phytotoxicity) | 4 (90%-99% herbicidal effect, phytotoxicity) | 4 (90%-99% herbicidal effect, phytotoxicity) | 4 (90%-99% herbicidal effect, phytotoxicity)
CCC1(C)CCN(Cc2ccccc2N(C(=O)OCC(C)(C)C)S(=O)(=O)C(F)(F)F)C(=O)O1 (centres unmarked) [Compound 1-75] | 4 (90%-99% herbicidal effect, phytotoxicity) | 4 (90%-99% herbicidal effect, phytotoxicity) | 4 (90%-99% herbicidal effect, phytotoxicity) | 4 (90%-99% herbicidal effect, phytotoxicity) | 4 (90%-99% herbicidal effect, phytotoxicity)
CCOC(=O)N(c1ccccc1CN1CCC(C)(c2ccccc2F)OC1=O)S(=O)(=O)C(F)(F)F (racemic) [Compound 1-430] | 5 (100% herbicidal effect, phytotoxicity) | 5 (100% herbicidal effect, phytotoxicity) | 5 (100% herbicidal effect, phytotoxicity) | 4 (90%-99% herbicidal effect, phytotoxicity) | 4 (90%-99% herbicidal effect, phytotoxicity)
CCOC(=O)N(c1ccccc1CN1CCC(CC)(c2ccccc2)OC1=O)S(=O)(=O)C(F)(F)F (centres unmarked) [Compound 1-318] | 5 (100% herbicidal effect, phytotoxicity) | 4 (90%-99% herbicidal effect, phytotoxicity) | 5 (100% herbicidal effect, phytotoxicity) | 4 (90%-99% herbicidal effect, phytotoxicity) | 4 (90%-99% herbicidal effect, phytotoxicity)
CC1CCN(Cc2ccccc2N(C(=O)OCC(Cl)(Cl)Cl)S(=O)(=O)C(F)(F)F)C(=O)OC1 (racemic) [2-34] | 4 (90%-99% herbicidal effect, phytotoxicity) | 4 (90%-99% herbicidal effect, phytotoxicity) | 4 (90%-99% herbicidal effect, phytotoxicity) | 4 (90%-99% herbicidal effect, phytotoxicity) | 4 (90%-99% herbicidal effect, phytotoxicity)
CCOC(=O)N(c1ccccc1CN1CCC(CC)(C(C)C)OC1=O)S(=O)(=O)C(F)(F)F (racemic) [Compound 1-452] | 5 (100% herbicidal effect, phytotoxicity) | 5 (100% herbicidal effect, phytotoxicity) | 5 (100% herbicidal effect, phytotoxicity) | 4 (90%-99% herbicidal effect, phytotoxicity) | 4 (90%-99% herbicidal effect, phytotoxicity)
CC1(C)CCN(Cc2ccccc2NS(=O)(=O)C(F)(F)F)C(=S)O1 [Compound 1-58] | 4 (90%-99% herbicidal effect, phytotoxicity) | 4 (90%-99% herbicidal effect, phytotoxicity) | 4 (90%-99% herbicidal effect, phytotoxicity) | 4 (90%-99% herbicidal effect, phytotoxicity) | 4 (90%-99% herbicidal effect, phytotoxicity)
CCC1(c2ccccc2)CCN(Cc2ccccc2N(C(=O)OC)S(=O)(=O)C(F)(F)F)C(=O)O1 (centres unmarked) [Compound 1-317] | 5 (100% herbicidal effect, phytotoxicity) | 4 (90%-99% herbicidal effect, phytotoxicity) | 5 (100% herbicidal effect, phytotoxicity) | 4 (90%-99% herbicidal effect, phytotoxicity) | 4 (90%-99% herbicidal effect, phytotoxicity)
CCC1(CC)CCN(Cc2ccccc2N(C(=O)OCC(C)C)S(=O)(=O)C(F)(F)F)C(=O)O1 [Compound 1-107] | 4 (90%-99% herbicidal effect, phytotoxicity) | 4 (90%-99% herbicidal effect, phytotoxicity) | 4 (90%-99% herbicidal effect, phytotoxicity) | 4 (90%-99% herbicidal effect, phytotoxicity) | 4 (90%-99% herbicidal effect, phytotoxicity)
CCC1(C(F)(F)F)CCN(Cc2ccccc2N(C(=O)OCCCl)S(=O)(=O)C(F)(F)F)C(=O)O1 (centres unmarked) [Compound 1-415] | 5 (100% herbicidal effect, phytotoxicity) | 5 (100% herbicidal effect, phytotoxicity) | 5 (100% herbicidal effect, phytotoxicity) | 5 (100% herbicidal effect, phytotoxicity) | 4 (90%-99% herbicidal effect, phytotoxicity)
CC(C)(C)C1(C)CCN(Cc2ccccc2NS(=O)(=O)C(F)(F)F)C(=O)O1 (centres unmarked) [Compound 1-327] | 5 (100% herbicidal effect, phytotoxicity) | 5 (100% herbicidal effect, phytotoxicity) | 5 (100% herbicidal effect, phytotoxicity) | 4 (90%-99% herbicidal effect, phytotoxicity) | 4 (90%-99% herbicidal effect, phytotoxicity)
